According to ChEMBL document CHEMBL6177952, “Exploring chloro-isoxazole compounds inspired on tetrahydrofuran neolignans as promising antileishmanial agents” (Eur J Med Chem, 2025):
Calls of active or inactive are those of the source. The calls are words filed in the database; no cut-off is given here.

What was measured:
Leishmania amazonensis [1] = experiment: Antileishmanial activity against leishmania amazonensis infected in BALB/c mouse assessed as reduction in viable parasites in footpad tissue at 5 mg/kg, ILES measured after 65 days post infection relative to control; type: functional; details: time 65 day
Leishmania amazonensis [2] = experiment: Antileishmanial activity against leishmania amazonensis IFLA/BR/1967/PH8 promastigotes infected in mouse Peritoneal macrophage incubated for 24 hrs; type: functional, organism-based; details: IFLA/BR/1967/PH8, Peritoneal macrophage
[3] = Selectivity ratio of CC50 for cytotoxicity against BALB/c mouse Peritoneal macrophage assessed as inhibition of cell growth to IC50 for antileishmanial activity against leishmania amazonensis IFLA/BR/1967/PH8 intracellular amastigote infected in mouse Peritoneal macrophage; type: toxicity, cell-based; details: peritoneal macrophages, read-out: Ratio CC50/IC50
Leishmania amazonensis [4] = experiment: Potency index, ratio of Amphotericin B IC50 to test compound IC50 for antileishmanial activity against leishmania amazonensis IFLA/BR/1967/PH8 promastigotes infected in mouse Peritoneal macrophage incubated for 24 hrs; type: functional
Leishmania amazonensis [5] = experiment: Potency index, ratio of pentamidine IC50 to test compound IC50 for antileishmanial activity against leishmania amazonensis IFLA/BR/1967/PH8 promastigotes infected in mouse Peritoneal macrophage incubated for 24 hrs; type: functional
Leishmania amazonensis [6] = experiment: Antileishmanial activity against leishmania amazonensis infected in BALB/c mouse assessed as reduction in footpad swelling at 5 mg/kg, ILES measured at week 5; type: functional, organism-based; details: time 5.0 weeks
Leishmania amazonensis [7] = experiment: Antileishmanial activity against leishmania amazonensis infected in BALB/c mouse assessed as reduction in lesion size at 5 mg/kg, ILES measured at 6 to 9 week post infection; type: functional, organism-based; details: time 6-9 weeks
Leishmania amazonensis [8] = experiment: Antileishmanial activity against leishmania amazonensis infected in BALB/c mouse assessed as reduction in parasitism in draining lymph node at 5 mg/kg, ILES measured after 65 days post infection by limiting dilution assay; type: functional, organism-based; details: time 65.0 day
Leishmania amazonensis [9] = experiment: Antileishmanial activity against leishmania amazonensis infected in BALB/c mouse assessed as reduction in […] at 5 mg/kg, ILES measured after 65 days post infection by limiting dilution assay; type: functional, organism-based; details: time 65.0 day
Mitochondrial membrane [10] = experiment: Induction of mitochondrial membrane potential in Leishmania amazonensis promastigotes at 38.1 uM measured at 48 hrs by flow cytometry analysis; type: cell membranes
Mitochondrial membrane [11] = experiment: Induction of mitochondrial membrane potential in Leishmania amazonensis promastigotes at 38.1 uM measured at 72 hrs by flow cytometry analysis; type: cell membranes
[12] = Mutagenicity in Salmonella typhimurium TA98 assessed as number of revertant colonies per plate at 150 microg/ml by Ames test; type: toxicity; details: salmonella enterica subsp. enterica serovar typhimurium; dose 150 µg/ml
[13] = Mutagenicity in Salmonella typhimurium TA98 assessed as number of revertant colonies per plate at 1500 microg/ml by Ames test; type: toxicity; details: salmonella enterica subsp. enterica serovar typhimurium; dose 1500 µg/ml
[14] = Mutagenicity in Salmonella typhimurium TA98 assessed as number of revertant colonies per plate at 5000 microg/ml by Ames test; type: toxicity; details: salmonella enterica subsp. enterica serovar typhimurium; dose 5000 µg/ml
[15] = Mutagenicity in Salmonella typhimurium TA100 assessed as number of revertant colonies per plate at 150 microg/ml by Ames test; type: toxicity; details: salmonella enterica subsp. enterica serovar typhimurium; dose 150 µg/ml
[16] = Mutagenicity in Salmonella typhimurium TA100 assessed as number of revertant colonies per plate at 500 microg/ml by Ames test; type: toxicity; details: salmonella enterica subsp. enterica serovar typhimurium; dose 500 µg/ml
[17] = Mutagenicity in Salmonella typhimurium TA100 assessed as number of revertant colonies per plate at 1500 microg/ml by Ames test; type: toxicity; details: salmonella enterica subsp. enterica serovar typhimurium; dose 1500 µg/ml
[18] = Mutagenicity in Salmonella typhimurium TA100 assessed as number of revertant colonies per plate at 5000 microg/ml by Ames test; type: toxicity; details: salmonella enterica subsp. enterica serovar typhimurium; dose 5000 µg/ml
[19] = Mutagenicity in Salmonella typhimurium TA102 assessed as number of revertant colonies per plate at 50 microg/ml in presence of S9 fraction by Ames test; type: toxicity, subcellular; details: salmonella enterica subsp. enterica serovar typhimurium, dose 50 µg/ml
[20] = Mutagenicity in Salmonella typhimurium TA102 assessed as number of revertant colonies per plate at 50 microg/ml by Ames test; type: toxicity; details: salmonella enterica subsp. enterica serovar typhimurium; dose 50 µg/ml
[21] = Mutagenicity in Salmonella typhimurium TA102 assessed as number of revertant colonies per plate at 150 microg/ml in presence of S9 fraction by Ames test; type: toxicity, subcellular; details: salmonella enterica subsp. enterica serovar typhimurium, dose 150 µg/ml
[22] = Mutagenicity in Salmonella typhimurium TA102 assessed as number of revertant colonies per plate at 150 microg/ml by Ames test; type: toxicity; details: salmonella enterica subsp. enterica serovar typhimurium; dose 150 µg/ml
[23] = Mutagenicity in Salmonella typhimurium TA102 assessed as number of revertant colonies per plate at 500 microg/ml by Ames test; type: toxicity; details: salmonella enterica subsp. enterica serovar typhimurium; dose 500 µg/ml
[24] = Mutagenicity in Salmonella typhimurium TA102 assessed as number of revertant colonies per plate at 5000 microg/ml by Ames test; type: toxicity; details: salmonella enterica subsp. enterica serovar typhimurium; dose 5000 µg/ml
Leishmania amazonensis [25] = experiment: Antileishmanial activity against Leishmania amazonensis promastigotes assessed as early apoptotic parasites at 38.1 uM incubated for 24 hrs by Annexin V/7-AAD staining based flow cytometry analysis relative to control; type: functional
Leishmania amazonensis [26] = experiment: Antileishmanial activity against Leishmania amazonensis promastigotes assessed as late apoptotic parasites at 38.1 uM incubated for 24 hrs by Annexin V/7-AAD staining based flow cytometry analysis relative to control; type: functional
Leishmania amazonensis [27] = experiment: Antileishmanial activity against Leishmania amazonensis promastigotes assessed as viable apoptotic parasites at 38.1 uM incubated for 24 hrs by Annexin V/7-AAD staining based flow cytometry analysis relative to control; type: functional
Leishmania amazonensis [28] = experiment: Antileishmanial activity against Leishmania amazonensis promastigotes assessed as necrotic parasites at 38.1 uM incubated for 24 hrs by Annexin V/7-AAD staining based flow cytometry analysis relative to control; type: functional
Leishmania amazonensis [29] = experiment: Antileishmanial activity against Leishmania amazonensis promastigotes assessed as early apoptotic parasites at 38.1 uM incubated for 48 hrs by Annexin V/7-AAD staining based flow cytometry analysis relative to control; type: functional
Leishmania amazonensis [30] = experiment: Antileishmanial activity against Leishmania amazonensis promastigotes assessed as late apoptotic parasites at 38.1 uM incubated for 48 hrs by Annexin V/7-AAD staining based flow cytometry analysis relative to control; type: functional
Leishmania amazonensis [31] = experiment: Antileishmanial activity against Leishmania amazonensis promastigotes assessed as viable apoptotic parasites at 38.1 uM incubated for 48 hrs by Annexin V/7-AAD staining based flow cytometry analysis relative to control; type: functional
Leishmania amazonensis [32] = experiment: Antileishmanial activity against Leishmania amazonensis promastigotes assessed as necrotic parasites at 38.1 uM incubated for 48 hrs by Annexin V/7-AAD staining based flow cytometry analysis relative to control; type: functional
Leishmania amazonensis [33] = experiment: Antileishmanial activity against Leishmania amazonensis promastigotes assessed as early apoptotic parasites at 38.1 uM incubated for 72 hrs by Annexin V/7-AAD staining based flow cytometry analysis relative to control; type: functional
Leishmania amazonensis [34] = experiment: Antileishmanial activity against Leishmania amazonensis promastigotes assessed as viable apoptotic parasites at 38.1 uM incubated for 72 hrs by Annexin V/7-AAD staining based flow cytometry analysis relative to control; type: functional
Leishmania amazonensis [35] = experiment: Antileishmanial activity against Leishmania amazonensis promastigotes assessed as necrotic parasites at 38.1 uM incubated for 72 hrs by Annexin V/7-AAD staining based flow cytometry analysis relative to control; type: functional

## COc1cc(-c2cc(-c3ccc4c(c3)OCO4)on2)c(Cl)c(OC)c1OC
Leishmania amazonensis [1]
  Activity: 99.5%
Leishmania amazonensis [2]
  IC50: 38.1 µM
[3]
  selectivity ratio: 22.7
Leishmania amazonensis [4]
  Ratio IC50: 3.6
Leishmania amazonensis [5]
  Ratio IC50: 29
Leishmania amazonensis [6]
  Activity: Active
Leishmania amazonensis [7]
  Activity: Active
Leishmania amazonensis [8]
  Activity: Active
Leishmania amazonensis [9]
  Activity: Active
Mitochondrial membrane [10]
  Activity: Active
Mitochondrial membrane [11]
  Activity: Active
[12]
  revertant count: 9.7 revertants/plate
[13]
  revertant count: 32.7 revertants/plate
[14]
  revertant count: 21.3 revertants/plate
[15]
  Activity: 94.6 revertants/plate
[16]
  revertant count: 123 revertants/plate
[17]
  Activity: 116 revertants/plate
[18]
  Activity: 114 revertants/plate
[19]
  Activity: 204 revertants/plate
[20]
  revertant count: 139 revertants/plate
[21]
  Activity: 187 revertants/plate
[22]
  Activity: 142 revertants/plate
[23]
  revertant count: 161 revertants/plate
[24]
  revertant count: 194 revertants/plate
Leishmania amazonensis [25]
  Activity: 0.8%
Leishmania amazonensis [26]
  Activity: 0.4%
Leishmania amazonensis [27]
  Activity: 95.5%
Leishmania amazonensis [28]
  Activity: 0.3%
Leishmania amazonensis [29]
  Activity: 3.6%
Leishmania amazonensis [30]
  Activity: 0.6%
Leishmania amazonensis [31]
  Activity: 95.2%
Leishmania amazonensis [32]
  Activity: 0.6%
Leishmania amazonensis [33]
  Activity: 2.4%
Leishmania amazonensis [34]
  Activity: 93.2%
Leishmania amazonensis [35]
  Activity: 2.5%
